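In this assay, cells in 96-well plates receive the compound at five concentrations for 48 hours. Endpoints are linearly interpolated between the surrounding concentrations. Here, GI50 denotes the concentration required for 50% inhibition of growth. TGI is the concentration that stops growth completely.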
How the values were obtained:
Assay in all cases: inhibition of tumour cell growth, NCI panel, 48 h
[1] = tested on: KM20L2 colon
[2] = tested on: CCRF-CEM leukemia
[3] = tested on: NCI-H226 lung
[4] = tested on: SNB-19 CNS
[5] = tested on: HOP-18 NSCLC
[6] = tested on: UACC-257 melanoma
[7] = tested on: 786-0 renal
[8] = tested on: HCT-116 colon
[9] = tested on: M19-MEL melanoma
[10] = tested on: SF-539 CNS
[11] = tested on: COLO 205 colon
[12] = tested on: HOP-92 NSCLC
[13] = tested on: OVCAR-4 ovarian
[14] = tested on: RXF-631 renal
[15] = tested on: SF-295 CNS
[16] = tested on: KM12 colon
[17] = tested on: OVCAR-8 ovarian
[18] = tested on: SN12C renal
[19] = tested on: U251 CNS
[20] = tested on: IGROV1 ovarian
[21] = tested on: RXF 393 renal
[22] = tested on: NCI-H522 lung
[23] = tested on: SW-620 colon
[24] = tested on: M14 melanoma
[25] = tested on: ACHN renal
[26] = tested on: MALME-3M melanoma
[27] = tested on: A498 renal
[28] = tested on: SK-MEL-2 melanoma
[29] = tested on: SNB-75 CNS
[30] = tested on: LOX IMVI melanoma
[31] = tested on: XF 498 CNS
[32] = tested on: UO-31 renal
[33] = tested on: SK-OV-3 ovarian
[34] = tested on: NCI-H460 lung
[35] = tested on: OVCAR-3 ovarian
[36] = tested on: NCI-H23 lung
[37] = tested on: DMS 114 small cell lung
[38] = tested on: A549 NSCLC
[39] = tested on: K-562 leukemia
[40] = tested on: SK-MEL-5 melanoma
[41] = tested on: HCC-2998 colon
[42] = tested on: DMS 273 small cell lung
[43] = tested on: HL-60(TB) leukemia
[44] = tested on: DLD-1 colon
[45] = tested on: HOP-62 NSCLC
[46] = tested on: SF-268 CNS
[47] = tested on: EKVX NSCLC
[48] = tested on: UACC-62 melanoma
[49] = tested on: SK-MEL-28 melanoma
[50] = tested on: MOLT-4 leukemia
[51] = tested on: HCT-15 colon
[52] = tested on: TK-10 renal
[53] = tested on: RPMI-8226 leukemia
[54] = tested on: SNB-78 CNS
[55] = tested on: HT29 colon
[56] = tested on: CAKI-1 renal
[57] = tested on: OVCAR-5 ovarian
[58] = tested on: LXFL 529 NSCLC

NC1CCC[C@H]1O (stereo partly specified)
TGI [1]: > 100 µM | TGI [2]: > 100 µM | TGI [3]: > 100 µM | TGI [4]: > 100 µM | TGI [5]: > 100 µM | TGI [6]: > 100 µM | TGI [7]: > 100 µM | TGI [8]: > 100 µM | TGI [9]: > 100 µM | TGI [10]: > 100 µM | TGI [11]: > 100 µM | TGI [12]: > 100 µM | TGI [13]: > 100 µM | TGI [14]: > 100 µM | TGI [15]: > 100 µM | TGI [16]: > 100 µM | TGI [17]: > 100 µM | TGI [18]: > 100 µM | TGI [19]: > 100 µM | TGI [20]: > 100 µM | TGI [21]: > 100 µM | TGI [22]: > 100 µM | TGI [23]: > 100 µM | TGI [24]: > 100 µM | TGI [25]: > 100 µM | TGI [26]: > 100 µM | TGI [27]: > 100 µM | TGI [28]: > 100 µM | TGI [29]: > 100 µM | TGI [30]: > 100 µM | TGI [31]: > 100 µM | TGI [32]: > 100 µM | TGI [33]: > 100 µM | TGI [34]: > 100 µM | TGI [35]: > 100 µM | TGI [36]: > 100 µM | TGI [37]: > 100 µM | TGI [38]: > 100 µM | TGI [39]: > 100 µM | TGI [40]: > 100 µM | TGI [41]: > 100 µM | TGI [42]: > 100 µM | TGI [43]: > 100 µM | TGI [44]: > 100 µM | TGI [45]: > 100 µM | TGI [46]: > 100 µM | TGI [47]: > 100 µM | TGI [48]: > 100 µM | TGI [49]: > 100 µM | TGI [50]: > 100 µM | TGI [51]: > 100 µM | TGI [52]: > 100 µM | TGI [53]: > 100 µM | TGI [54]: > 100 µM | TGI [55]: > 100 µM

O=C1OC(c2cccc(C(F)(F)F)c2)c2ccc3ccccc3c21 (stereo unspecified)
GI50 [1]: > 100 µM | TGI [1]: > 100 µM | GI50 [2]: 5.19 µM | TGI [2]: > 100 µM | GI50 [3]: > 100 µM | TGI [3]: > 100 µM | GI50 [4]: > 100 µM | TGI [4]: > 100 µM | GI50 [5]: > 100 µM | TGI [5]: > 100 µM | GI50 [6]: 8.64 µM | TGI [6]: > 100 µM | GI50 [7]: > 100 µM | TGI [7]: > 100 µM | GI50 [9]: > 100 µM | TGI [9]: > 100 µM | TGI [10]: > 100 µM | GI50 [11]: > 100 µM | TGI [11]: > 100 µM | TGI [12]: > 100 µM | GI50 [13]: > 100 µM | TGI [13]: > 100 µM | GI50 [14]: > 100 µM | TGI [14]: > 100 µM | TGI [15]: > 100 µM | GI50 [16]: > 100 µM | TGI [16]: > 100 µM | GI50 [17]: > 100 µM | TGI [17]: > 100 µM | GI50 [18]: > 100 µM | TGI [18]: > 100 µM | GI50 [20]: > 100 µM | TGI [20]: > 100 µM | GI50 [56]: > 100 µM | TGI [56]: > 100 µM | GI50 [57]: > 100 µM | TGI [57]: > 100 µM | TGI [21]: > 100 µM | GI50 [23]: > 100 µM | TGI [23]: > 100 µM | GI50 [24]: > 100 µM | TGI [24]: > 100 µM | GI50 [27]: > 100 µM | TGI [27]: > 100 µM | GI50 [28]: > 100 µM | TGI [28]: > 100 µM | TGI [29]: > 100 µM | TGI [31]: > 100 µM | TGI [32]: > 100 µM | GI50 [33]: > 100 µM | TGI [33]: > 100 µM | GI50 [35]: > 100 µM | TGI [35]: > 100 µM | TGI [36]: > 100 µM | TGI [37]: > 100 µM | TGI [38]: > 100 µM | GI50 [39]: 25 µM | TGI [39]: > 100 µM | GI50 [41]: > 100 µM | TGI [41]: > 100 µM | TGI [43]: > 100 µM | TGI [44]: > 100 µM | GI50 [45]: > 100 µM | TGI [45]: > 100 µM | GI50 [47]: > 100 µM | TGI [47]: > 100 µM | TGI [58]: > 100 µM | GI50 [49]: > 100 µM | TGI [49]: > 100 µM | GI50 [50]: 4.99 µM | TGI [50]: > 100 µM | GI50 [51]: 6.21 µM | TGI [51]: > 100 µM | GI50 [52]: > 100 µM | TGI [52]: > 100 µM | TGI [54]: > 100 µM

Source: PubChem BioAssay (NCI)
